This assay addresses T1, kinases of HEK293 cell lysate (TGFBR1) (Homo sapiens, UniProt P36897).
T1 construct: endogenous in cells; host or cells: HEK293 cell lysate
As to the kind of experiment: MIB-MS kinase competition assay in HEK293 cell lysate. It is filed as binding. Particulars: 1 μM. How it is done: To understand the mammalian toxicity of these diarylimidazole derivatives and to aid in future compound design, we experimentally investigated the potential series’ mechanism of action (MoA). […] This affinity composition assay has proven to be a useful approach to validate kinase inhibitor selectivity. […] Whether the inhibition of TGF-β1 contributes to the cytotoxicity observed remains to be determined.
Following a brief incubation with these compounds, lysates were passed over MIBs (see Supporting Information - Biology), and the captured kinases were identified and quantified by mass spectrometry. Displaced kinases are shown to the left of the center line at the designated doses.
Differential abundance (increase or decrease in MIB binding) was determined for kinases identified. The mass spectrometry proteomics data have been deposited to the ProteomeXchange Consortium via the PRIDE[43] partner repository with the dataset identifier PXD040208.
EphB2 TRKB FGFR1 FGFR4 EphB2 TRKB FGFR1 FGFR4
EphA5 EphB1 ROR2 FLT1 FmS/CSFR EphA5 EphB1 ROR2 FLT1 FmS/CSFR
MUSK ROR1Ret Kit MUSK ROR1Ret Kit
EphB3 DDR2 Mer EphB3 DDR2 Mer
EphA3EphA4 DDR1 Axl Tyro/SkyFLT4 PDGFRα EphA3EphA4 DDR1 AxlTyro/SkyFLT4 PDGFRα
IRR FLT3PDGFRβ IRR FLT3PDGFRβ
EphA6 IGF1R HER2 EphA6 IGF1R HER2
Yes InSR Met EGFR Yes InSR Met EGFR
Branch Color Src EphB4 Ron MLK3 Branch Color Src EphB4 Ron MLK3
Lyn EphA7 ALK TIE2 Lyn EphA7 ALK TIE2 […]

T1 sequence (P36897 34-503): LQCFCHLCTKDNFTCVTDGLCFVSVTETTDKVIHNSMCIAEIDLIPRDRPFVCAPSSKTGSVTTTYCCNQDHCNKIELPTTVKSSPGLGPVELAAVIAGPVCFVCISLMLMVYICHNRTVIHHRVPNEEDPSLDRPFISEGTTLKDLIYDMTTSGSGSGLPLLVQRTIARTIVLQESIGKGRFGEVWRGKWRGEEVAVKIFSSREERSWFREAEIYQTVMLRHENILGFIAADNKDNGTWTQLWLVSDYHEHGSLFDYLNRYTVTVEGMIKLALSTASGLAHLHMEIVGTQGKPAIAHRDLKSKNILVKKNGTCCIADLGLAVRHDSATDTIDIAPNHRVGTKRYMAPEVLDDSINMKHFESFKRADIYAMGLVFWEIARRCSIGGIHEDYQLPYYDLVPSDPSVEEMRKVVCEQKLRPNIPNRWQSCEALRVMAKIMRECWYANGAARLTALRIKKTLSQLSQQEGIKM

Take `c1ccc(-c2nc3n(c2-c2ccc4sccc4c2)CCC3)nc1` [compound 822]: the “competition of kinases (TGFBR1) off MIBs” value is given as “selectively competed off MIBs”.
